Among the data in patent US12637413B2, “Fatty acid amide hydrolase (FAAH) cleavable prodrugs of thyromimetics and combination with peripherally restricted FAAH inhibitors” (Autobahn Therapeutics, Inc., priority 2021, dated 2026) are ke and ED50 values, retold here.

Where two headings read alike, the source gives them in different places.

Assay [1] deals with T1, recombinant human FAAH (rhFAAH) (Homo sapiens, UniProt O00519).
T1 construct: purchased Cayman Chemical (Ann Arbor, MI, USA)
T1 sequence (O00519 1-579): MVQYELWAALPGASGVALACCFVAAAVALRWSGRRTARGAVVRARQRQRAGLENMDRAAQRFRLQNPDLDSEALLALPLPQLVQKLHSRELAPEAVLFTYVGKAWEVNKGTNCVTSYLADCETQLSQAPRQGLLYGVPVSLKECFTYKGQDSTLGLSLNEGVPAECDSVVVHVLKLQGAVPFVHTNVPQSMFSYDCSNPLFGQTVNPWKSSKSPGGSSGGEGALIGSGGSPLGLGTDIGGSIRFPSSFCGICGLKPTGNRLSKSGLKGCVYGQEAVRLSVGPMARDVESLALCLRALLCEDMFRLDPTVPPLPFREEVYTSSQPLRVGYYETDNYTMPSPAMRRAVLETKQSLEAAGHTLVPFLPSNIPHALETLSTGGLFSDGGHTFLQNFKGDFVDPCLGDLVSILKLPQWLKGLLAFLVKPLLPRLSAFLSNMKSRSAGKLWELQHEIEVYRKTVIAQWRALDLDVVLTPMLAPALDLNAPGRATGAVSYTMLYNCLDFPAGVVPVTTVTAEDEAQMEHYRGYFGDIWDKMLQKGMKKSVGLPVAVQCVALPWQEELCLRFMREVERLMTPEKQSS
In words: FAAH substrate evaluation (acid metabolite formation). The note with it: observed rate constant for acid metabolite formation; 0.5 ng/μL rhFAAH, 1 μM test compound, room temperature, 0-60 minutes. The format is biochemical. As to the method:
Purified recombinant human FAAH (rhFAAH) was purchased from Cayman Chemical (Ann Arbor, MI, USA). The total volume for each incubation was 400 μL containing a final 0.5 ng/μL rhFAAH, 1 μM test compound, 1.25% ethanol or 1 μM PF-3845 (FAAH inhibitor), and 0.1% bovine serum albumin in Tris-EDTA buffer at pH 8.0). The positive control was LL-341001. The incubation was conducted at the room temperature. At 0, 5, 15, 30 and 60 minutes, an aliquot of 30 μL reaction mixtures was removed and mixed with 300 μL acetonitrile containing 5 ng/mL terfenadine and 10 ng/mL tolbutamide as internal standards to quench the reaction. The resulting mixture was centrifuged at 4000 rpm, 4° C. for 15 minutes, and 100 μL supernatant was ready for LC-MS/MS analysis to measure the formation of acid metabolite.
Acquity Ultra Performance LC system from Waters was used for sample analysis. The chromatography was performed on a reverse phase Kinetex 2.6 μm C18 column, 2.1×30 mm, 100 Å. The mobile phase A comprised of 0.1% formic acid in water and mobile phase B comprised of 0.1% formic acid in acetonitrile with a 2-min run time at the flow rate of 0.8 mL/min for the acid metabolite from positive control or a 1.5 min run time at the flow rate of 0.9 mL/min for the acid metabolite of test compounds. The mass spectrometer (API-5500 and API Q Trap 4000 Applied Biosystems/MDS SCIEX Instruments, Framingham, MA, USA) was operated under ESI positive or negative ion MRM mode.
The formation of acid metabolite was monitored and quantified using one calibration point of 1 μM. The observed rate constant (ke) for the acid metabolite formation was calculated by plotting the metabolite concentration versus time of incubation with the slope being ke and is shown in Table 1.

In the next assay the test system is T3-regulated genes. Description: gene expression in brain and liver after 7 days PO QD dosing. Type of assay: in vivo, Female C57BL/6 mice. The following applies: Mus musculus, PO QD 7 days, 4 or 8 h after last dose. As for the experimental part: Female C57BL/6 mice (n=5/group), 6-8 weeks old, were acclimated to the study room for at least 3 days before dose administration in the studies. Mice were dosed at 5 mL/kg based on most recent body weight, collected once for the duration of the study. Based on most recent body weight, collected once for the duration of the study, mice were placed into weight-matched treatment dosing cohorts. Mice were given a single administration of PFI or vehicle orally (PO) daily (n=5/group) for 7 days at time=−1 hour. Following the PFI (100 μg/kg) or vehicle dose (10 mL/kg, p.o.), animals were given test article daily at time=0 hour. Test article administration one of eight dose levels (0.1, 0.3, 1, 3, 10, 30, 100 or 300 μg/kg) on Days 1-7 for a total of seven doses. Mice were dosed PO, QD for 7 days with (A) active metabolite or (B) prodrug alone; (C) prodrug+PFI (LL-650177) or (D) prodrug+GFI. […] RNA from samples harvested 4 hours after final dose was quantified using a hybridization-based in situ RNA quantification method (NanoString, Seattle, WA), as described below. RNA from samples harvested 8 hours after final dose was quantified using a hybridization-based in situ RNA quantification method (QuantiGene Plex), as described below. […]

Consider `CNC(=O)COc1cc(Cl)c(Cc2ccc(O)c(C(C)C)c2)c(Cl)c1` [Compound 1], for which the ke entry in assay [1] was “A (ke is more than or equal to 0.1)”. In addition, the ED50 was 0.044 mg/kg in the assay with T3-regulated genes (gene expression in brain, read-out: Brain (ED50 mg/kg)) and 0.0025 mg/kg in the assay on T3-regulated genes (gene expression in liver, read-out: Liver (ED50 mg/kg)).
